Experimental data from ChEMBL document CHEMBL5338820, “Discovery and Design of Novel Cyclic Peptides as Specific Inhibitors Targeting CCN2 and Disrupting CCN2/EGFR Interaction for Kidney Fibrosis Treatment” (J Med Chem, 2023).
Peptide text beside a SMILES is read from it.

Tests used:
[1] = target: T1, CCN2-EGFR (Homo sapiens) (UniProt P00533+P29279); experiment: Inhibition of His-tagged full length human CCN2 CT domain/human Fc-tagged EGFR protein-protein interaction using TMB as chromogenic substrate at 100 uM incubated for 140 mins by microplate reader assay relative to control
[2] = target: T1, CCN2-EGFR (Homo sapiens); experiment: Inhibition of His-tagged full length human CCN2 FL domain/human Fc-tagged EGFR protein-protein interaction using TMB as chromogenic substrate at 100 uM incubated for 140 mins by microplate reader assay relative to control

T1 sequence (P00533 whole entry, looked up, the tested form may be a part): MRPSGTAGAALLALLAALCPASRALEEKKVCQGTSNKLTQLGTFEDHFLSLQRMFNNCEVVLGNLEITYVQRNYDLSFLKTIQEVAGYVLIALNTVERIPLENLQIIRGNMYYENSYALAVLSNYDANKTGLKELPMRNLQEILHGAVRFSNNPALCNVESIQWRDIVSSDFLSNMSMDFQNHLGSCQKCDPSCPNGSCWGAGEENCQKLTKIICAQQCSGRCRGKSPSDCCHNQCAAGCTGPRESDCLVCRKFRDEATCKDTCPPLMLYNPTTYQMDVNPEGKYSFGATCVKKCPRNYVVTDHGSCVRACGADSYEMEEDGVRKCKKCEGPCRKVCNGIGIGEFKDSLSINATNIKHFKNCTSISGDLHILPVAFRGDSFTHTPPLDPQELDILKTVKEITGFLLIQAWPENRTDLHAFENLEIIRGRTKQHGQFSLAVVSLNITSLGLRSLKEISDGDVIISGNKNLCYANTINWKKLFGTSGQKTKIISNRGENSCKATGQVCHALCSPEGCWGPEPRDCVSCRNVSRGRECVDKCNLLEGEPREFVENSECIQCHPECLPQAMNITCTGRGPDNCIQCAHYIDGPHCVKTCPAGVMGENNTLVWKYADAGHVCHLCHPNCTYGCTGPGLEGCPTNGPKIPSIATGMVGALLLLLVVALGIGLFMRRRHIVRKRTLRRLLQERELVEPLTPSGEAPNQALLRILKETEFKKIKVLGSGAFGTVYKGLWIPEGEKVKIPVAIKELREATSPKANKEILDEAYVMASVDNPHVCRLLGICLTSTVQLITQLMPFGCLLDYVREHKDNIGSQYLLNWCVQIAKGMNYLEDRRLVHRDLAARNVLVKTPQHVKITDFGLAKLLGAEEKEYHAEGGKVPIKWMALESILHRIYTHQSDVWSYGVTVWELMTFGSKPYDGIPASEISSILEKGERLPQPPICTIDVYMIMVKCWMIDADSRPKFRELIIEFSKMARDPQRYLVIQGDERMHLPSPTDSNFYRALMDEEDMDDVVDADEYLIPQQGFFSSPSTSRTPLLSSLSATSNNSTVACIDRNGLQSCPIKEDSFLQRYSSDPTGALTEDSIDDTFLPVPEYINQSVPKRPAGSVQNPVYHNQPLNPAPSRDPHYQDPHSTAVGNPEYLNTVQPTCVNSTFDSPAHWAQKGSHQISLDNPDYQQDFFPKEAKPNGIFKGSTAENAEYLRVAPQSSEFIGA
T1 sequence (P29279 whole entry, looked up, the tested form may be a part): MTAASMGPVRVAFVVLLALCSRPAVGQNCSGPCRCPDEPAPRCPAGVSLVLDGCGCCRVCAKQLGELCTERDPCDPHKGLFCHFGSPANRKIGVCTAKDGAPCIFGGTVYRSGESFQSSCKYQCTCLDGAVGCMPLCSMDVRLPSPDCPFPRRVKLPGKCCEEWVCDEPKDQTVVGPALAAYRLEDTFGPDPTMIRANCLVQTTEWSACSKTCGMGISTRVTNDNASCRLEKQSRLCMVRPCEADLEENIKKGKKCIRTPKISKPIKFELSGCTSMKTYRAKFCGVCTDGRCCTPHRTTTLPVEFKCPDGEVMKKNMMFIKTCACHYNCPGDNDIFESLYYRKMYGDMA

SMILES	inhibition [1] [%]	inhibition [2] [%]
CC(C)C[C@H](NC(=O)[C@@H](N)CC(C)C)C(=O)N[C@@H](C)C(=O)N[C@@H](CC(=O)O)C(=O)N[C@H](C(=O)N[C@H](C(=O)N[C@@H](Cc1c[nH]cn1)C(=O)N[C@@H](C)C(=O)N[C@@H](CCCNC(=N)N)C(=O)N1CCC[C@H]1C(=O)N[C@@H](Cc1c[nH]c2ccccc12)C(=O)N[C@H](C(N)=O)[C@@H](C)O)[C@@H](C)O)[C@@H](C)O (H-LLADTTHARPWT-NH2)	65.8	48.6
C[C@@H](O)[C@@H]1NC(=O)[C@H](Cc2c[nH]c3ccccc23)NC(=O)[C@@H]2CCCN2C(=O)[C@H](CCCNC(=N)N)NC(=O)[C@H](CCCCN)NC(=O)[C@H](Cc2c[nH]cn2)NC(=O)[C@H]([C@@H](C)O)NC1=O (cyclo(HKRPWTT))	13.2	17.4
CC(C)C[C@H](NC(=O)[C@@H](N)CC(C)C)C(=O)N[C@@H](C)C(=O)N[C@@H](C)C(=O)N[C@H](C(=O)N[C@H](C(=O)N[C@@H](Cc1c[nH]cn1)C(=O)N[C@@H](Cc1c[nH]cn1)C(=O)N[C@@H](CCCNC(=N)N)C(=O)N1CCC[C@H]1C(=O)N[C@@H](Cc1c[nH]c2ccccc12)C(=O)N[C@H](C(N)=O)[C@@H](C)O)[C@@H](C)O)[C@@H](C)O (H-LLAATTHHRPWT-NH2)	76	61.4
CC(C)C[C@H](NC(=O)[C@@H](N)CC(C)C)C(=O)N[C@@H](C)C(=O)N[C@@H](CC(=O)O)C(=O)N[C@H](C(=O)N[C@H](C(=O)N[C@@H](C)C(=O)N[C@@H](Cc1c[nH]cn1)C(=O)N[C@@H](CCCNC(=N)N)C(=O)N1CCC[C@H]1C(=O)N[C@@H](Cc1c[nH]c2ccccc12)C(=O)N[C@H](C(N)=O)[C@@H](C)O)[C@@H](C)O)[C@@H](C)O (H-LLADTTAHRPWT-NH2)	70.5	59.6
C[C@@H](O)[C@H](N)C(=O)N[C@@H](CCC(N)=O)C(=O)N[C@@H](Cc1c[nH]cn1)C(=O)N[C@@H](CCCNC(=N)N)C(=O)N1CCC[C@H]1C(=O)N[C@@H](Cc1c[nH]c2ccccc12)C(=O)N[C@H](C(N)=O)[C@@H](C)O (H-TQHRPWT-NH2)	11.8	6.8
CC(C)C[C@H](NC(=O)[C@@H](N)CC(C)C)C(=O)N[C@@H](C)C(=O)N[C@@H](CC(=O)O)C(=O)N[C@H](C(=O)N[C@H](C(=O)N[C@@H](Cc1c[nH]cn1)C(=O)N[C@@H](Cc1c[nH]cn1)C(=O)N[C@@H](C)C(=O)N1CCC[C@H]1C(=O)N[C@@H](Cc1c[nH]c2ccccc12)C(=O)N[C@H](C(N)=O)[C@@H](C)O)[C@@H](C)O)[C@@H](C)O (H-LLADTTHHAPWT-NH2)	72.5	57.8
CC(C)C[C@H](NC(=O)[C@@H](N)CC(C)C)C(=O)N[C@@H](C)C(=O)N[C@@H](CC(=O)O)C(=O)N[C@H](C(=O)N[C@@H](C)C(=O)N[C@@H](Cc1c[nH]cn1)C(=O)N[C@@H](Cc1c[nH]cn1)C(=O)N[C@@H](CCCNC(=N)N)C(=O)N1CCC[C@H]1C(=O)N[C@@H](Cc1c[nH]c2ccccc12)C(=O)N[C@H](C(N)=O)[C@@H](C)O)[C@@H](C)O (H-LLADTAHHRPWT-NH2)	44.1	36.5
CC(C)C[C@H](NC(=O)[C@@H](N)CC(C)C)C(=O)N[C@@H](C)C(=O)N[C@@H](CC(=O)O)C(=O)N[C@H](C(=O)N[C@H](C(=O)N[C@@H](Cc1c[nH]cn1)C(=O)N[C@@H](Cc1c[nH]cn1)C(=O)N[C@@H](CCCNC(=N)N)C(=O)N[C@@H](C)C(=O)N[C@@H](Cc1c[nH]c2ccccc12)C(=O)N[C@H](C(N)=O)[C@@H](C)O)[C@@H](C)O)[C@@H](C)O (H-LLADTTHHRAWT-NH2)	65.6	56.5
CC(C)C[C@H](NC(=O)[C@@H](N)CC(C)C)C(=O)N[C@@H](C)C(=O)N[C@@H](CC(=O)O)C(=O)N[C@H](C(=O)N[C@H](C(=O)N[C@@H](Cc1c[nH]cn1)C(=O)N[C@@H](Cc1c[nH]cn1)C(=O)N[C@@H](CCCNC(=N)N)C(=O)N1CCC[C@H]1C(=O)N[C@@H](C)C(=O)N[C@H](C(N)=O)[C@@H](C)O)[C@@H](C)O)[C@@H](C)O (H-LLADTTHHRPAT-NH2)	10.7	8.7
CC(C)C[C@H](NC(=O)[C@H](C)N)C(=O)N[C@@H](C)C(=O)N[C@@H](CC(=O)O)C(=O)N[C@H](C(=O)N[C@H](C(=O)N[C@@H](Cc1c[nH]cn1)C(=O)N[C@@H](Cc1c[nH]cn1)C(=O)N[C@@H](CCCNC(=N)N)C(=O)N1CCC[C@H]1C(=O)N[C@@H](Cc1c[nH]c2ccccc12)C(=O)N[C@H](C(N)=O)[C@@H](C)O)[C@@H](C)O)[C@@H](C)O (H-ALADTTHHRPWT-NH2)	70.8	58.7
CC(C)C[C@H](N)C(=O)N[C@@H](C)C(=O)N[C@@H](C)C(=O)N[C@@H](CC(=O)O)C(=O)N[C@H](C(=O)N[C@H](C(=O)N[C@@H](Cc1c[nH]cn1)C(=O)N[C@@H](Cc1c[nH]cn1)C(=O)N[C@@H](CCCNC(=N)N)C(=O)N1CCC[C@H]1C(=O)N[C@@H](Cc1c[nH]c2ccccc12)C(=O)N[C@H](C(N)=O)[C@@H](C)O)[C@@H](C)O)[C@@H](C)O (H-LAADTTHHRPWT-NH2)	69.5	62.8
CC(C)C[C@H](NC(=O)[C@@H](N)CC(C)C)C(=O)N[C@@H](C)C(=O)N[C@@H](CC(=O)O)C(=O)N[C@@H](C)C(=O)N[C@H](C(=O)N[C@@H](Cc1c[nH]cn1)C(=O)N[C@@H](Cc1c[nH]cn1)C(=O)N[C@@H](CCCNC(=N)N)C(=O)N1CCC[C@H]1C(=O)N[C@@H](Cc1c[nH]c2ccccc12)C(=O)N[C@H](C(N)=O)[C@@H](C)O)[C@@H](C)O (H-LLADATHHRPWT-NH2)	70.7	59

Results, then the compound that gave them:

inhibition [1] [%]	inhibition [2] [%]	SMILES
43.6	37.1	CC(C)C[C@H](NC(=O)[C@H](CCCNC(=N)N)NC(=O)[C@H](Cc1c[nH]cn1)NC(=O)[C@H](Cc1c[nH]cn1)NC(=O)[C@@H](N)[C@@H](C)O)C(=O)N[C@@H](Cc1c[nH]c2ccccc12)C(=O)N[C@H](C(N)=O)[C@@H](C)O (H-THHRLWT-NH2)
1.2	4.5	C[C@@H](O)[C@H](N)C(=O)N[C@@H](Cc1c[nH]cn1)C(=O)N[C@@H](Cc1c[nH]cn1)C(=O)N[C@@H](CCCNC(=N)N)C(=O)N[C@@H](CCC(N)=O)C(=O)N[C@@H](Cc1c[nH]c2ccccc12)C(=O)N[C@H](C(N)=O)[C@@H](C)O (H-THHRQWT-NH2)
11.1	19.6	C[C@@H](O)[C@H](N)C(=O)N[C@@H](Cc1c[nH]cn1)C(=O)N[C@@H](Cc1c[nH]cn1)C(=O)N[C@@H](CCCNC(=N)N)C(=O)N[C@@H](CCC(=O)O)C(=O)N[C@@H](Cc1c[nH]c2ccccc12)C(=O)N[C@H](C(N)=O)[C@@H](C)O (H-THHREWT-NH2)
12.1	15.5	C[C@@H](O)[C@H](N)C(=O)N[C@@H](Cc1c[nH]cn1)C(=O)N[C@@H](CCC(=O)O)C(=O)N[C@@H](CCCNC(=N)N)C(=O)N1CCC[C@H]1C(=O)N[C@@H](Cc1c[nH]c2ccccc12)C(=O)N[C@H](C(N)=O)[C@@H](C)O (H-THERPWT-NH2)
11.5	12.5	C[C@@H](O)[C@H](N)C(=O)N[C@@H](CCC(=O)O)C(=O)N[C@@H](Cc1c[nH]cn1)C(=O)N[C@@H](CCCNC(=N)N)C(=O)N1CCC[C@H]1C(=O)N[C@@H](Cc1c[nH]c2ccccc12)C(=O)N[C@H](C(N)=O)[C@@H](C)O (H-TEHRPWT-NH2)
10.9	5.1	C[C@@H](O)[C@H](N)C(=O)N[C@@H](Cc1c[nH]cn1)C(=O)N[C@@H](CCC(N)=O)C(=O)N[C@@H](CCCNC(=N)N)C(=O)N1CCC[C@H]1C(=O)N[C@@H](Cc1c[nH]c2ccccc12)C(=O)N[C@H](C(N)=O)[C@@H](C)O (H-THQRPWT-NH2)
